The values below come from US10357493B2, “Metalloenzyme inhibitor compounds” (Selenity Therapeutics (Bermuda), Ltd., priority 2017, dated 2019).

Some results are limits rather than exact numbers.

In assay [1] the target is HDAC6 (Homo sapiens (Human), UniProt Q9UBN7). Briefly: HDAC6 enzymatic assay. The class given is biochemical. The note with it: read-out: Human HDAC6 IC50. As to the method: (§1) All enzymatic reactions were conducted in duplicate at room temperature for 17 hours in a 50 μl mixture containing HDAC assay buffer (50 mM Tris-HCl, pH 7.4, 137 mM NaCl, 2.7 mM KCl, 0.05% Tween 20, 5 μg BSA), an HDAC substrate, an HDAC enzyme, and a test compound. Compound dilution was prepared ten-fold higher than the final concentration of the compounds with 10% DMSO in HDAC assay buffer and 5 μl of the dilution was added to a 50 μl reaction so that the final concentration of DMSO is 1% in all of reactions. After enzymatic reactions, 50 μl of HDAC Developer was added to each well and the plate was incubated at room temperature for an additional 20 minutes. Fluorescence intensity was measured at an excitation of 360 nm and an emission of 460 nm using a Tecan Infinite M1000 or Biotek Synergy microplate reader.
(§2) The fluorescent intensity data were analyzed using the computer software, Graphpad Prism. In the absence of the compound, the fluorescent intensity (Ft) in each data set was defined as 100% activity. In the absence of HDAC, the fluorescent intensity (Fb) in each data set was defined as 0% activity. The percent activity in the presence of each compound was calculated according to the following equation: % activity=(F−Fb)/(Ft−Fb), where F=the fluorescent intensity in the presence of the compound.
(§3) The values of % activity versus a series of compound concentrations were then plotted using non-linear regression analysis of Sigmoidal dose-response curve generated with the equation Y=B+(T−B)/1+10((Log EC50−X)×Hill Slope), where Y=percent activity, B=minimum percent activity, T=maximum percent activity, X=logarithm of compound and Hill Slope=slope factor or Hill coefficient. The IC50 value was determined by the concentration causing a half-maximal percent activity.
(§4) HDAC1 enzymatic assays contained 0.5 ng HDAC1 and 10 uM of HDAC substrate. HDAC2 enzymatic assays contained 0.5 ng HDAC2 and 10 uM of HDAC substrate. HDAC3 enzymatic assays contained 0.4 ng HDAC3/NCOR2 and 10 uM of HDAC substrate. HDAC4 enzymatic assays contained 0.02 ng HDAC4 and 2 uM of HDAC substrate. HDAC5 enzymatic assays contained 0.5 ng HDAC5 and 2 uM of HDAC substrate. HDAC6 enzymatic assays contained 2 ng HDAC6 and 10 uM of HDAC substrate. HDAC7 enzymatic assays contained 0.05 ng HDAC7 and 2 uM of HDAC substrate. HDAC8 enzymatic assays contained 5 ng HDAC8 and 2 uM of HDAC substrate. HDAC9 enzymatic assays contained 1 ng HDAC9 and 2 uM of HDAC substrate. HDAC10 enzymatic assays contained 75 ng HDAC10 and 10 uM of HDAC substrate. HDAC11 enzymatic assays contained 5 ng HDAC11 and 2 uM of HDAC substrate.

Assay [2] addresses HDAC1 (Homo sapiens (Human), UniProt Q13547). Briefly: HDAC1 enzymatic assay. The class given is biochemical. The note with it: read-out: Human HDAC1 IC50. As to the method:
as §1, §2, §3, §4

Sequence of HDAC6 (Q9UBN7 whole entry): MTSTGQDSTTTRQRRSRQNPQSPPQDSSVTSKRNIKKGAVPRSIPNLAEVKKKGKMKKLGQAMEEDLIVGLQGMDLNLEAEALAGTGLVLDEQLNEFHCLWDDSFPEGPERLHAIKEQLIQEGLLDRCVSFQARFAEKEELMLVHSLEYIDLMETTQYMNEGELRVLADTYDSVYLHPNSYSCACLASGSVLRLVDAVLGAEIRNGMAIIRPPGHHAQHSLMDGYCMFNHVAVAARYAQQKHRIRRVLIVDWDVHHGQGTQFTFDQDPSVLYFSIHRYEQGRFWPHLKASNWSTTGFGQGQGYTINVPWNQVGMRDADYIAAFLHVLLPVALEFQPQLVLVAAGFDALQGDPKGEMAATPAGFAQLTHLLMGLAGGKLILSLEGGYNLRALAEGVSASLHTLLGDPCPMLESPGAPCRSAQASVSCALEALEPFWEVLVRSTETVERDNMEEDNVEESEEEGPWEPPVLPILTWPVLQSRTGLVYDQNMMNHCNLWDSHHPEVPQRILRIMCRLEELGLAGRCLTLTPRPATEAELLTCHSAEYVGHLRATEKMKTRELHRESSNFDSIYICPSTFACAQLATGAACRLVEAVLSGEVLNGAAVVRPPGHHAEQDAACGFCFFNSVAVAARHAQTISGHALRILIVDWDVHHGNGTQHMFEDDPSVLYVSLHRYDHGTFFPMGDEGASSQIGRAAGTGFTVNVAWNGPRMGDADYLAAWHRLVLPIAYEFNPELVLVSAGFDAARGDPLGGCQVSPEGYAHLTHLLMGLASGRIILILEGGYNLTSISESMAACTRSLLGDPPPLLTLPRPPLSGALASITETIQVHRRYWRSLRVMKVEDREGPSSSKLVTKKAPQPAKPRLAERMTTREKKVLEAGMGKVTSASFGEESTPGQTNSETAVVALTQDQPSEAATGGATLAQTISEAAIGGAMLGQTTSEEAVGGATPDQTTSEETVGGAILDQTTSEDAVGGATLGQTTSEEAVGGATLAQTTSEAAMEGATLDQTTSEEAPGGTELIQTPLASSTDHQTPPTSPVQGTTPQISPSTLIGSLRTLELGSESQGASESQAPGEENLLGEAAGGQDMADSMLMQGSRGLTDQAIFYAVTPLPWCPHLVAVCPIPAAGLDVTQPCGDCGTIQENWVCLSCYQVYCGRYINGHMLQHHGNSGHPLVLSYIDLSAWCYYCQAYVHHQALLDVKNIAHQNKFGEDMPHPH
Sequence of HDAC1 (Q13547 whole entry): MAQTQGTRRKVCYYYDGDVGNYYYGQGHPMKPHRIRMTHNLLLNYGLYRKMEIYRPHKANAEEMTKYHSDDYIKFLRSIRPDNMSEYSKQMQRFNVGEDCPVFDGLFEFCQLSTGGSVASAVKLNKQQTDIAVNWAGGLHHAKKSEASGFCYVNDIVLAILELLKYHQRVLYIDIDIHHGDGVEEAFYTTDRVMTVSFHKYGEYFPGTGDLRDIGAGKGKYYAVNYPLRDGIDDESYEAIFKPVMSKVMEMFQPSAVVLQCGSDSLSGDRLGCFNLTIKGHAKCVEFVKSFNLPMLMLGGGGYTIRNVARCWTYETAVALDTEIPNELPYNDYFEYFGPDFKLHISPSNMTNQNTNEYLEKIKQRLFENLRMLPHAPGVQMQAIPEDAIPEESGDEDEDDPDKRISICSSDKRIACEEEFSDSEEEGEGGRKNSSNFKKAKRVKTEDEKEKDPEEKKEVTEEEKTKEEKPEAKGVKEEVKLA

With `CCS(=O)(=O)N(CC(Nc1ncc(-c2nnc(C(F)F)o2)cn1)c1ccc(F)cc1)CC(F)(F)F` (single isomer, unassigned) [164(+), N-(2-((5-(5-(difluoromethyl)-1,3,4-oxadiazol-2-yl)pyrimidin-2-yl)amino)-2-(4-fluorophenyl)ethyl)-N-(2,2,2-trifluoroethyl)ethanesulfonamide], the IC50 in assay [1] is 110 nM; in assay [2], more than 30000 nM.
For `CCS(=O)(=O)N(CC(Nc1ncc(-c2nnc(C(F)F)o2)cn1)c1ccc(F)cc1)CC(F)(F)F` (single isomer, unassigned) [164(−), N-(2-((5-(5-(difluoromethyl)-1,3,4-oxadiazol-2-yl)pyrimidin-2-yl)amino)-2-(4-fluorophenyl)ethyl)-N-(2,2,2-trifluoroethyl)ethanesulfonamide] the same measures were 230 nM and more than 30000 nM.
For `O=S(=O)(C1CC1)N(CC(Nc1ncc(-c2nnc(C(F)F)o2)cn1)c1ccc(F)cc1)CC(F)(F)F` (single isomer, unassigned) [165(+), N-(2-((5-(5-(difluoromethyl)-1,3,4-oxadiazol-2-yl)pyrimidin-2-yl)amino)-2-(4-fluorophenyl)ethyl)-N-(2,2,2-trifluoroethyl)cyclopropanesulfonamide] the same measures were 110 nM and more than 30000 nM.
For `O=S(=O)(C1CC1)N(CC(Nc1ncc(-c2nnc(C(F)F)o2)cn1)c1ccc(F)cc1)CC(F)(F)F` (single isomer, unassigned) [165(−), N-(2-((5-(5-(difluoromethyl)-1,3,4-oxadiazol-2-yl)pyrimidin-2-yl)amino)-2-(4-fluorophenyl)ethyl)-N-(2,2,2-trifluoroethyl)cyclopropanesulfonamide] the same measures were 160 nM and more than 30000 nM.
On to `CC(=O)N(C)CC(Nc1ncc(-c2nnc(C(F)F)o2)cn1)c1ccc(F)cc1` (single isomer, unassigned) [166(+), N-(2-((5-(5-(difluoromethyl)-1,3,4-oxadiazol-2-yl)pyrimidin-2-yl)amino)-2-(4-fluorophenyl)ethyl)-N-methylacetamide], for which the IC50 is 93 nM in assay [1] and more than 30000 nM in assay [2].
For `CC(=O)N(C)CC(Nc1ncc(-c2nnc(C(F)F)o2)cn1)c1ccc(F)cc1` (single isomer, unassigned) [166(−), N-(2-((5-(5-(difluoromethyl)-1,3,4-oxadiazol-2-yl)pyrimidin-2-yl)amino)-2-(4-fluorophenyl)ethyl)-N-methylacetamide] the same measures were 360 nM and more than 30000 nM.
For `CC(=O)N(CC(Nc1ncc(-c2nnc(C(F)F)o2)cn1)c1ccc(F)cc1)CC(F)(F)F` (single isomer, unassigned) [167(+), N-(2-((5-(5-(difluoromethyl)-1,3,4-oxadiazol-2-yl)pyrimidin-2-yl)amino)-2-(4-fluorophenyl)ethyl)-N-(2,2,2-trifluoroethyl)acetamide], in that order: 110 nM and more than 30000 nM.
For `CC(=O)N(CC(Nc1ncc(-c2nnc(C(F)F)o2)cn1)c1ccc(F)cc1)CC(F)(F)F` (single isomer, unassigned) [167(−), N-(2-((5-(5-(difluoromethyl)-1,3,4-oxadiazol-2-yl)pyrimidin-2-yl)amino)-2-(4-fluorophenyl)ethyl)-N-(2,2,2-trifluoroethyl)acetamide], in that order: 690 nM and more than 30000 nM.
For `O=C(NCC(Nc1ncc(-c2nnc(C(F)F)o2)cn1)c1ccc(F)cc1)C1CC1` (single isomer, unassigned) [168(−), N-(2-((5-(5-(difluoromethyl)-1,3,4-oxadiazol-2-yl)pyrimidin-2-yl)amino)-2-(4-fluorophenyl)ethyl)cyclopropanecarboxamide], the IC50 in assay [1] was 750 nM; in assay [2], more than 30000 nM.
In the case of `CN(CC(Nc1ncc(-c2nnc(C(F)F)o2)cn1)c1ccc(F)cc1)C(=O)C1CC1` (single isomer, unassigned) [169(+), N-(2-((5-(5-(difluoromethyl)-1,3,4-oxadiazol-2-yl)pyrimidin-2-yl)amino)-2-(4-fluorophenyl)ethyl)-N-methylcyclopropanecarboxamide], the IC50 in assay [1] was 77 nM; in assay [2], more than 30000 nM.
For `CN(CC(Nc1ncc(-c2nnc(C(F)F)o2)cn1)c1ccc(F)cc1)C(=O)C1CC1` (single isomer, unassigned) [169(−), N-(2-((5-(5-(difluoromethyl)-1,3,4-oxadiazol-2-yl)pyrimidin-2-yl)amino)-2-(4-fluorophenyl)ethyl)-N-methylcyclopropanecarboxamide], the results for the IC50 in assay [1] and in assay [2] were 1100 nM and more than 30000 nM, respectively.
For `O=C(C1CC1)N(CC(Nc1ncc(-c2nnc(C(F)F)o2)cn1)c1ccc(F)cc1)CC(F)(F)F` (single isomer, unassigned) [170(+), N-(2-((5-(5-(difluoromethyl)-1,3,4-oxadiazol-2-yl)pyrimidin-2-yl)amino)-2-(4-fluorophenyl)ethyl)-N-(2,2,2-trifluoroethyl)cyclopropanecarboxamide], the IC50 in assay [1] was 160 nM; in assay [2], more than 30000 nM.
As to `O=C(C1CC1)N(CC(Nc1ncc(-c2nnc(C(F)F)o2)cn1)c1ccc(F)cc1)CC(F)(F)F` (single isomer, unassigned) [170(−), N-(2-((5-(5-(difluoromethyl)-1,3,4-oxadiazol-2-yl)pyrimidin-2-yl)amino)-2-(4-fluorophenyl)ethyl)-N-(2,2,2-trifluoroethyl)cyclopropanecarboxamide], the results for the IC50 in assay [1] and in assay [2] were 1000 nM and more than 30000 nM, respectively.
As for `CS(=O)(=O)NCC(Nc1ncc(-c2nnc(C(F)F)o2)cn1)c1ccc(F)c(F)c1` (single isomer, unassigned) [171(−), N-(2-((5-(5-(difluoromethyl)-1,3,4-oxadiazol-2-yl)pyrimidin-2-yl)amino)-2-(3,4-difluorophenyl)ethyl)methanesulfonamide], the IC50 was 590 nM in assay [1] and more than 30000 nM in assay [2].
As for `CS(=O)(=O)N(CC(Nc1ncc(-c2nnc(C(F)F)o2)cn1)c1ccc(F)c(F)c1)CC(F)(F)F` (single isomer, unassigned) [172(A), N-(2-((5-(5-(difluoromethyl)-1,3,4-oxadiazol-2-yl)pyrimidin-2-yl)amino)-2-(3,4-difluorophenyl)ethyl)-N-(2,2,2-trifluoroethyl)methanesulfonamide], the results for the concentration for half-maximal inhibition (IC50) in assay [1] and in assay [2] were 320 nM and more than 30000 nM, respectively.
Regarding `CS(=O)(=O)N(CC(Nc1ncc(-c2nnc(C(F)F)o2)cn1)c1ccc(F)c(F)c1)CC(F)(F)F` (single isomer, unassigned) [172(B), N-(2-((5-(5-(difluoromethyl)-1,3,4-oxadiazol-2-yl)pyrimidin-2-yl)amino)-2-(3,4-difluorophenyl)ethyl)-N-(2,2,2-trifluoroethyl)methanesulfonamide], the IC50 in assay [1] is 86 nM; in assay [2] it was more than 30000 nM.
Turning to `CS(=O)(=O)NCC(Nc1ncc(-c2nnc(C(F)F)o2)cn1)c1ccc(Cl)cc1` (single isomer, unassigned) [173(−), N-(2-(4-chlorophenyl)-2-((5-(5-(difluoromethyl)-1,3,4-oxadiazol-2-yl)pyrimidin-2-yl)amino)ethyl)methanesulfonamide], the IC50 was 490 nM in assay [1] and more than 30000 nM in assay [2].
For the molecule `CS(=O)(=O)N(CC(Nc1ncc(-c2nnc(C(F)F)o2)cn1)c1ccc(Cl)cc1)CC(F)(F)F` (single isomer, unassigned) [174(+), N-(2-(4-chlorophenyl)-2-((5-(5-(difluoromethyl)-1,3,4-oxadiazol-2-yl)pyrimidin-2-yl)amino)ethyl)-N-(2,2,2-trifluoroethyl)methanesulfonamide], the IC50 is 170 nM in assay [1] and more than 30000 nM in assay [2].
As for `CS(=O)(=O)N(CC(Nc1ncc(-c2nnc(C(F)F)o2)cn1)c1ccc(Cl)cc1)CC(F)(F)F` (single isomer, unassigned) [174(−), N-(2-(4-chlorophenyl)-2-((5-(5-(difluoromethyl)-1,3,4-oxadiazol-2-yl)pyrimidin-2-yl)amino)ethyl)-N-(2,2,2-trifluoroethyl)methanesulfonamide], the IC50 was 110 nM in assay [1] and more than 30000 nM in assay [2].

As usually defined, the IC50 is the midpoint of a concentration-inhibition curve.
